Results from US12673041B2, “4-aminobut-2-enamide derivatives and salt thereof” (TAIHO PHARMACEUTICAL CO., LTD., priority 2019, dated 2026).
Where two headings read alike, the source gives them in different places.

What was measured:
[1] = target: T1, activated KRAS in NCI-H358 (Homo sapiens, UniProt P01116, G12C); assay: Amount of activated KRAS on KRAS-G12C mutant cell line NCI-H358 (Ras GTPase Chemi ELISA); type: cell-based; settings: for IC50: 1 hour with compound
T1 construct: host or cells: NCI-H358
T1 sequence (P01116 1-188 isoform P01116-2 G12C): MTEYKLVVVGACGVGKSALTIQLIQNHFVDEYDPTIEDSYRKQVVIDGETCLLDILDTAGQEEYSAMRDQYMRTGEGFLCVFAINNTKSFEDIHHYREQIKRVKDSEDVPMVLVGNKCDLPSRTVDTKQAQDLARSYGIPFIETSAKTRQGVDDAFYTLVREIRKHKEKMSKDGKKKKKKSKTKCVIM
Experimental: NCI-H358 [H358, H358] (ATCC® CRL5807™), which is a KRAS-G12C mutant human lung cancer cell line, and MIA PaCa-2 (ATCC® CRL-1420™), which is a KRAS-G12C mutant human pancreas cancer cell line, were suspended in a 10% fetal bovine serum-containing RPMI1640 medium (manufactured by Thermo Fischer SCIENTIFIC), respectively. The cell suspension was seeded into a cell culture plate and cultured in an incubator containing 5% CO2 gas at 37° C. for 1 day. The lyophilized recombinant human EGF protein (R&D systems, Cat #: 236-EG-200) was dissolved in PBS to make 0.5 mg/ml solution. […] Then, the compounds obtained in the “Preparation of Compounds” section were used as test compounds and were dissolved in DMSO, and each test compound was diluted with DMSO to give a concentration 200 times the final concentration. The solution of the test compound in DMSO was diluted with the medium used for suspending cells and added to each well of the cell-culture plate to give a DMSO final concentration of 0.5%, followed by culture in an incubator containing 5% CO2 gas at 37° C. for another 1 hour. The amount of activated KRAS after 1 hour culture in the presence of the compound was measured using Ras GTPase Chemi ELISA Kit (manufactured by Active Motif). The ratio of KRAS activity was calculated from the following equation, and the concentration of the test compound at which activity was suppressed to 50% (IC50 (μM)) was determined. […] The Ratio of KRAS activity to control (%)=(T−BG)/(C−BG)×100 • T: the emission intensity in a well into which a test compound was added. • C: the emission intensity in a well into which a test compound was not added. • BG: the emission intensity in a well into which neither a test compound nor a cell suspension was added.

[2] = target: T2, GMPPNP-bound KRAS G12C protein and cRAF RAS-binding domain (cRAF-RBD) (Homo sapiens, UniProt P01116, G12C); assay: Inhibitory activity on interaction between KRAS G12C and cRAF (Alpha technology); type: biochemical; settings: GMPPNP-bound KRAS G12C incubated with compound at 25° C. for 1 hour, then cRAF-RBD, Alpha signal; read-out: IC50
T2 construct: made in house; host or cells: E. coli
T2 sequence (P01116 with tags, fused parts or gaps isoform P01116-2 G12C): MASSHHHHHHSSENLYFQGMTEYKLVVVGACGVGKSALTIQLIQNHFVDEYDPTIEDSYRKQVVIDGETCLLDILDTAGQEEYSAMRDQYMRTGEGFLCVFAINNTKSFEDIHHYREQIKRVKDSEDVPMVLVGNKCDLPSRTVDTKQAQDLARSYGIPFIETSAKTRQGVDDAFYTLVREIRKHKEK
Method in brief: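 GMPPNP-loaded His-KRAS G12C (aa 1-169) preincubated 1 h at 25 °C with compound (pH 7.5 Tris, 1 mM MgCl2, TCEP, Tween 20), then cRAF-RBD (aa 50-132) and Alpha reagents added for 1.5 h at RT. Inhibition scaled between DMSO (0%) and GDP-bound KRAS (100%); IC50 by curve fitting.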

MIA PaCa-2 cells = assay: Growth inhibition activity on KRAS-G12C mutant cell line (MIA PaCa-2); type: cell-based; settings: Homo sapiens, 72 h; MIA PaCa-2, 3-day culture, CellTiter-Glo 3D
Method in brief: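 KRAS-G12C human pancreatic MIA PaCa-2 cells in RPMI1640 + 10% FBS, seeded in U-bottom plates and grown 1 day, then exposed to compound (0.2% DMSO final) for 3 days at 37 °C, 5% CO2. Viability by CellTiter-Glo 3D luminescence; IC50 from inhibition relative to untreated wells.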

[3] = NCI-H358, with EGF 100 ng/ml, read-out: IC50 NCI-H358 with EGF
[4] = NCI-H358, without EGF, read-out: IC50 NCI-H358 without EGF

Structure (SMILES)	KRAS inhibition activity under EGF treatment ([1]; NCI-H358, EGF treatment)	IC50 [1, 3]	IC50 [1, 4]	IC50 [2]	IC50 (MIA PaCa-2 cells)
C=CC(=O)N1CCN(c2ncnc3c(F)c(-c4c(O)cccc4F)c(Cl)cc23)CC1 [ARS-1620, reference compound]	attenuated by EGF treatment	5400 nM	1400 nM	> 67000 nM	–
CCc1nc2cc(-c3cccc(NC(=O)c4ccc(NC(=O)/C=C/CN[C@H]5CC[C@H](OC)CC5)c(C#N)c4)c3)c(C(F)(F)F)cc2n1C [Example 1, 3-cyano-N-(3-(2-ethyl-1-methyl-6-(trifluoromethyl)-1H-benzo[d]imidazol-5-yl)phenyl)-4-((E)-4-(((1r, 4r)-4-methoxycyclohexyl)amino)but-2-enamido)benzamide]	–	850 nM	750 nM	180 nM	–
CO[C@H]1CC[C@H](NC/C=C/C(=O)Nc2ccc(C(=O)c3ccc4c(-c5cc6ncn(C)c6cc5C)cccn34)cc2C#N)CC1 [Example 4, (E)-N-(2-cyano-4-(8-(1,6-dimethyl-1H-benzo[d]imidazol-5-yl)indolizine-3-carbonyl)phenyl)-4-(((1r,4r)-4-methoxycyclohexyl)amino)but-2-enamide]	–	470 nM	390 nM	23 nM	140 nM
